According to patent publication US6716845B2, “Barbituric acid derivatives” (Hoffmann-La Roche Inc., priority 2001, dated 2004):
pIC50: −log10 of the molar value. Read-outs that look alike come from different tables or passages of the source.

How the values were obtained:
[1] = target: T1, MMP-8, catalytic domain (Homo sapiens, UniProt P22894); assay: Inhibition of MMP-8 catalytic domain, fluorogenic DNP-heptapeptide substrate cleavage; format: biochemical
T1 construct: Enzyme: 8 nM catalytic domain (Met80-Gly242) of human neutrophil collagenase (MMP-8); made in house
Description: The results are evaluated by plotting the reciprocal reaction rate against the concentration of the inhibitor.
The synthetic collagenase substrate is a heptapeptide which is coupled, at the C terminus, with DNP (dinitrophenol). Said DNP residue quenches by steric hindrance the fluorescence of the adjacent tryptophane of the heptapeptide. After cleavage of a tripeptide which includes the DNP group, the tryptophane fluorescence increases. The proteolytic cleavage of the substrate therefore can be measured by the fluorescence value.
The assay was performed at 25° C. in a freshly prepared 50 mM Tris buffer (pH 8.0) treated with dithiozone to remove traces of heavy metals. 4 mM CaCl2 was added and the buffer saturated with argon. Stock solutions of adamalysin II were prepared by centrifugation of the protein from an ammonium sulfate suspension and subsequent dissolution in the assay buffer. Stock solutions of collagenase were diluted with the assay buffer. Enzyme concentrations were determined by uv measurements (ε280=2.8 10^4 M^−1 cm^−1, ε288: 2.2 10^4 M^−1·cm^−1) and the stock solutions were stored in the cold. […] Substrate fluorescence was measured at an excitation and emission wavelength of λ=320 and 420 nm, respectively, on a spectrofluorimeter (Perkin Elmer, Model 650-40) equipped with a thermostated cell holder. Substrate hydrolysis was monitored for 10 min. immediately after adding the enzyme. All reactions were performed at least in triplicate. The Ki values-of the inhibitors were calculated from the intersection point of the straight lines obtained by the plots of vo/vi vs. [concentration of inhibitor], whereas IC50 values were calculated from plots of vi/vo [concentration of inhibitor] by non-linear regression with simple robust weighting.
50 mM Tris/HCI pH 7.6 (Tris=Tris-(hydroxymethyl)-aminomethane)
100 mM NaCl/10 mM CaCl2/5% MeOH (if necessary)
Enzyme: 8 nM catalytic domain (Met80-Gly242) of human neutrophil collagenase (MMP-8)
Substrate: 10 microM DNP-Pro-Leu-Gly-Leu-Trp-Ala-D-Arg-NH2
A solution of the enzyme and inhibitor in assay buffer (25° C.) was prepared. The reaction was started by giving the substrate into the solution. The cleavage of the fluorogenic substrate was followed by fluorescence spectroscopy with an excitation and emission wavelength of 280 and 350 nm, respectively. The IC50 value was calculated as the inhibitor concentration, which is necessary to decrease the velocity of the reaction to the half in comparison to the reaction without inhibitor.

[2] = catalytic domain of human neutrophil collagenase (MMP-8), substrate DNP-Pro-Leu-Gly-Leu-Trp-Ala-D-Arg-NH2, 25° C., read-out: IC50 Values of MMP-Inhibitor (vs. MMP-8, catalytic domain)

T1 sequence (P22894 100-262 limits assumed): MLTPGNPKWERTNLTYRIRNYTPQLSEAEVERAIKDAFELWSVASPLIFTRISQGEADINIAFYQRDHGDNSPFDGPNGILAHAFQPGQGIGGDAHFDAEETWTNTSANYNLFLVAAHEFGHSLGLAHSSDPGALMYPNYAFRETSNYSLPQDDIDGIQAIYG

SMILES | pIC50 [1, 2] | pIC50 [1] | melting point [°C]
O=C1NC(=O)C(c2ccc(Oc3ccc(Cl)cc3)cc2)(N2CCN(CC(O)CO)CC2)C(=O)N1 (stereo not shown) [Example 1, 5-[4-(4-Chloro-phenoxy)-phenyl]-5-[4-(2,3-dihydroxy-propyl)-piperazin-1-yl]-pyrimidine-2,4,6-trione] | 7.96 |  | 
O=C1NC(=O)C(c2ccc(Oc3ccc(Cl)cc3)cc2)(N2CCN(CCOCCO)CC2)C(=O)N1 [Example 2 - no. 1] | 7.80 |  | 
O=C1NC(=O)C(c2ccc(Oc3ccc(Cl)cc3)cc2)(N2CCN(CC3COC(=O)O3)CC2)C(=O)N1 (stereo not shown) [Example 2 - no. 2, 5-[4-(4-Chloro-phenoxy)-phenyl]-5-[4-(2-oxo-[1,3]dioxolan-4-ylmethyl)-piperazin-1-yl]-pyrimidine-2,4,6-trione] | 8.05 |  | 
CCOCC(O)CN1CCN(C2(c3ccc(Oc4ccc(Cl)cc4)cc3)C(=O)NC(=O)NC2=O)CC1 (stereo not shown) [Example 2 - no. 3, 5-[4-(4-Chloro-phenoxy)-phenyl]-5-[4-(3-ethoxy-2-hydroxy-propyl)-piperazin-1-yl]-pyrimidine-2,4,6-trione] | 7.82 |  | 
O=C1NC(=O)C(c2ccc(Oc3ccc(Cl)c(Cl)c3)cc2)(N2CCN(CCOCCO)CC2)C(=O)N1 [Example 2 - no. 4, 5-[4-(3,4-Dichloro-phenoxy)-phenyl]-5-4-[2-(2-hydroxy-ethoxy)-ethyl]-piperazin-1-yl-pyrimidine-2,4,6-trione] | 8.15 |  | 
O=C1NC(=O)C(c2ccc(Sc3ccccc3)cc2)(N2CCN(CCOCCO)CC2)C(=O)N1 [Example 2 - no. 5, 5-4-[2-(2-Hydroxy-ethoxy)-ethyl]-piperazin-1-yl-5-(4-phenylsulfanyl-phenyl)-pyrimidine-2,4,6-trione] | 7.72 |  | 
O=C1NC(=O)C(NCCN2CCN(c3ncccn3)CC2)(c2ccc(Oc3ccc(Br)cc3)cc2)C(=O)N1 [Example 2 - no. 10, 5-[4-(4-Bromo-phenoxy)-phenyl]-5-[2-(4-pyrimidin-2-yl-piperazin-1-yl)-ethylamino]-pyrimidine-2,4,6-trione] |  | 8.05 | 
NS(=O)(=O)c1ccc(CN2CCN(C3(c4ccc(Oc5ccc(Br)cc5)cc4)C(=O)NC(=O)NC3=O)CC2)cc1 [Example 2 - no. 11, 4-(4-5-[4-(4-Bromo-phenoxy)-phenyl]-2,4,6-trioxo-hexahydro-pyrimidin-5-yl-piperazin-1-ylmethyl)-benzenesulfonamide] | 7.96 |  | 
O=C(O)CCC(=O)N1CCN(C2(c3ccc(Oc4ccccc4)cc3)C(=O)NC(=O)NC2=O)CC1 [Example 3, 4-Oxo-4-4-[2,4,6-trioxo-5-(4-phenoxy-phenyl)-hexahydro-pyrimidin-5-yl]-piperazin-1-yl-butyric acid] | 7.96 |  | 270 to 275
